Data on one compound can be found in US10226044B2, “Agricultural and horticultural composition and method for cultivating plant” (AJINOMOTO CO., INC., priority 2014, dated 2019).

Read-outs that look alike come from different tables or passages of the source.

The subject of one data set is Phelipanche aegyptiaca. The conditions noted are these: plants cultivated on an agar medium; cited from earlier work.
In data set [1] the test system is grape (Cabernet Sauvignon). Description: Anthocyanin content of pericarp of grape bunches sprinkled with isoleucine. Format: in vivo. The following applies: 10 mM isoleucine + 0.1% Applauch BI, 6.25 mL per bunch; Cabernet Sauvignon after start of veraison. On the procedure:
For the test, Cabernet Sauvignon plants that had been cultivated in a test cultivation field and had begun veraison were used. Eight bunches of fruit of the grape were collected from each of two root clumps, i.e., total 16 bunches of fruit were collected, and 6.25 mL per bunch of 0.1% Applauch BI (Kao, control), 1 g/L of abscisic acid (ABA)+0.1% Applauch BI (positive control), or 10 mM isoleucine+0.1% Applauch BI were sprinkled on them. The samples were collected 4 times, and they were collected from 4 bunches for each time. Anthocyanin contained in pericarp was extracted with a mixed solution of water and acetone (1:2) from pericarp, and anthocyanin content was measured in the same manner as described above.

The next data set has as its system tomato (Momotaro Fight). Description: Sprinkling of various compounds on tomato (Momotaro): first appearance, coloring and number of fruit. Format: in vivo. How it is done:
Three seeds of tomato (Momotaro Fight) were shown in compost contained in a slit pot, and cultivated in the same manner as described in Example 1, provided that the cultivation was performed in a greenhouse (daytime temperature was 25° C. (6:00 to 20:00), and night temperature was 15° C. (20:00 to 6:00)). The compost and application of fertilizer were the same or performed in the same manner as those described in Example 1. After 3 weeks, one root clump was left, and the others were thinned out. When a flower cluster of the first tier appeared, a support was put up, and after a flower cluster of the second tier appeared, pinching was performed (pinching of terminal bud). After the plants of four root clumps uniformly grew, and flower buds began to appear, water (Con.), 10 mM L-isoleucine aqueous solution (Ile), 10 mM monosodium glutamate aqueous solution (GluNa), 5 mM urea aqueous solution (Urea), or 10 mM phenylalanine aqueous solution (Phe) was sprinkled on the whole plants every two weeks. The sprinkled volume was adjusted in accordance with the growth of the plants, and it was 15 to 30 mL per one root clump. The concentration of urea was 5 mM so that nitrogen amount provided by it was the same as that provided by each of the amino acids. Then, the first appearance of fruit, ripening of fruit, and number of fruit produced were investigated for each root clump.

The subject of another data set is rice seeds. The following applies: rice seeds treated with 0.2 to 20 mM isoleucine; cited from earlier work.
Data set [2] relates to Apples (variety, Tsugaru). Description: Anthocyanin content of pericarp of harvested apples immersed in Ile solutions. Format: in vivo, apple. The following applies: immersed 15 minutes in Ile solutions (1, 5, 10 mM) + 0.1% Applauch BI; 10th and 15th days after the treatment; compared to control group. On the procedure:
Apples (variety, Tsugaru) ready to mature (before coloring) were harvested, washed with tap water and then with distilled water, and immersed into water (control) and isoleucine (Ile) aqueous solutions of various concentrations for 15 minutes. To each treatment solution, 0.1% Applauch BI (Kao) was added. The treatment groups consisted of the following groups.
After the treatment, the apples were air-dried, and left standing in an incubator. The conditions consisted of constant temperature of 20° C., lighting condition of 120 μM/m^2/s obtained with 9 of 40 W fluorescent lamps, and daylength conditions of 16 hours of light period and 8 hours of dark period per day.
Pericarp color of the apples was evaluated by measuring anthocyanin content. Pericarp (0.5 g) collected from an apple of each treatment group was immersed in 5 mL of 2% formic acid at 4° C. for 24 hours to extract anthocyanin. Anthocyanin contained in the extract was analyzed by liquid chromatography. Since most part of anthocyanin of apple consists of cyanidin galactosides, anthocyanin concentration was calculated as cyanidin galactoside concentration.

In the next data set the test system is Psy, Pds and Zds genes. Description: Real-time PCR of genes involved in carotenoid synthesis in leaves. The data set is classed as in vivo, cherry tomato. The following applies: 10 mM Ile, leaves 24 hours after sprinkling. On the procedure: A 10 mM isoleucine aqueous solution (Ile) or water (Con.) was sprinkled on leaf surfaces of cherry tomato plants, and RNA was isolated from the leaves 24 hours afterward. By using the isolated RNA, expression of the genes that participate in the biosynthesis of carotenoids, genes of phytoene synthase (Psy), phytoene desaturase (Pds), and ξ-carotene desaturase (Zds), were analyzed. The extraction of RNA, synthesis of cDNA, and real-time PCR analysis were conducted in the same manner as described above.

Data set [3] has as its system cherry tomato (Suncherry Pure). The data set can be described thus: Sugar content and acidity analysis of tomato fruit juice. Format: in vivo. The conditions noted are these: 10 mM sprinkled once a week. How it is done: After the plants of four root clumps uniformly grew, and flower buds began to appear, water (Con.), 10 mM L-isoleucine aqueous solution (Ile), or 10 mM proline aqueous solution (Pro) was sprinkled on the whole plants once a week. The sprinkled volume was adjusted in accordance with the growth of the plants, and it was 15 to 30 mL per one root clump.
Mature tomato fruit were taken from cherry tomato plants of each experimental group in the same manner as described in iii) above, and fruit juice was pressed out from each fruit. Glucose content, fructose content, and acidity of each fruit juice extract were analyzed. Analysis of glucose and fructose was performed for a 20-fold diluted solution of fruit juice by using a food analysis reagent kit, F-Kit (Saccharose (Sucrose)/D-Glucose/D-Fructose Kit (Roche)) and DU800 Spectrophotometer (Beckman Coulter) according to the manuals of the kit and instrument. Acidity analysis was performed by using a pocket acidity meter (PAL-AC1, ATAGO).

For data set [4] the following is noted: cited from earlier work.

Take `CC[C@H](C)[C@H](N)C(=O)O` [Ile, L-isoleucine]: in the data set on Phelipanche aegyptiaca, the “infection of Phelipanche aegyptiaca in Arabidopsis thaliana” value was “ineffective”. Besides, the “anthocyanin content of pericarp” value in data set [1] was “increases”. The “color of fruit obtained from flowers that bloomed on the same day” value with tomato (Momotaro Fight) (10 mM, fruit of water-sprinkled plant was green) is on record as “already turned color to red”. For the same compound, in the data set with tomato (Momotaro Fight) (107th day after sowing, per four root clumps, water: 0), the “number of fruit turning color to orange or red” value came to 4. For the same compound, the “number of harvested fruits” value in the data set with tomato (Momotaro Fight) (after cultivation for 3 months after sowing, per four root clumps, water: 8) is listed as 16. For the same compound, the “production of momilactones A and B” value in the data set on rice seeds is reported as “promoted”. Further, the “anthocyanin content of apple pericarp” value in data set [2] was “higher”. Besides, in the data set on Psy, Pds and Zds genes, the “expression of Pds” value is “increased”, the “expression of Psy” value was “increased” and the “expression of Zds” value is listed as “increased”. Further, the “glucose content and fructose content of the fruit, comparison of groups” value in data set [3] was “almost the same as those of the control”. In data set [3] (fruit juice of mature fruit), this compound had an Acidity of 0.46%, a Fructose of 13.3 g/L and a Glucose of 13.3 g/L. In data set [4] (20° C.), the “solubility of isoleucine in water” value was 40.2 mg/mL. The “solubility of isoleucine in water” value in data set [4] is on record as “about 0.3 M”.
